Assay results as given in article PMC8196580, “Identification of Kaurane-Type Diterpenes as Inhibitors of Leishmania Pteridine Reductase I” (Molecules, 2021).
Like-named read-outs stand apart in the source and are kept apart here.

Legend:
L. major [1] = test system: L. major; set-up: method as in ChEMBL; conditions: ref ChEMBL, cited from earlier work
L. major [2] = assay: ChEMBL dataset of pIC50 values against L. major used for the RF model (Table S1); format: cell-based, Leishmania major; further: call rule not given here
[3] = ChemBL structures with pIC50 values used for Random forest model construction, L. major
[4] = Active/Inactive class assigned to the ChEMBL pIC50 value for Random forest model construction, ref ChEMBL
[5] = ChemBL structures with pIC50 values used for Random forest model construction (Table S1)
[6] = Active/Inactive class assigned to ChemBL structures for Random forest model construction (Table S1)

Row | SMILES | pIC50 Value (L. major [1]; [3]) | Outcome (L. major [2]; [4]) | pIC50 Value (L. major [1]; [5]) | Outcome (L. major [2]; [6])
1 | CC1=C2C(=O)c3c(OC(=O)c4ccc(Br)cc4)ccc(OC(=O)c4ccc(Br)cc4)c3CC2(C)CCC1=O (stereo not drawn) [CHEMBL255868] | 4.43 | Inactive |  | 
2 | c1ccc(-c2nc3ccccn3c2-c2ccsc2)cc1 [CHEMBL2151872] | 4.84 | Inactive |  | 
3 | Cc1ccccc1Cn1cc(CNc2nnc(-c3ccc([N+](=O)[O-])o3)s2)nn1 [CHEMBL1951528] | 4.60 | Inactive |  | 
4 | C[C@H]1COC2=C1C(=O)C(=O)c1c2ccc2c1[C@H](O)CCC2(C)C [CHEMBL485279] | 4.33 | Inactive |  | 
5 | Cc1ccc(Cl)cc1Nc1ncnc2ccc([N+](=O)[O-])cc12 [CHEMBL3758550] | 4.35 | Inactive |  | 
6 | COc1ccc(OC)c2c(O)cc(C)cc12 [CHEMBL2071229] | 4.42 | Inactive |  | 
7 | COc1ccc(/N=C/c2cn(C)c3ccccc23)cc1 [CHEMBL2071557] |  |  | 5.46 | Active
8 | Cc1ccc2cc(/C=C/C(=O)c3cc(Cl)sc3Cl)c(Cl)nc2c1 [CHEMBL1940857] |  |  | 5.69 | Active
9 | CC1=C(C(=O)Nc2ccc(C(=O)/C=C/c3ccc(O)cc3)cc2)C(c2ccc(C)cc2)NC(=S)N1 (stereo not drawn) [CHEMBL3786661] |  |  | 5.96 | Active
10 | COc1ccccc1C(=O)N/N=C/c1cc(O)c(O)c(O)c1 [CHEMBL2382033] | 4.50 | Inactive |  | 
11 | COc1cc(CO)c(-c2ccc3c(c2O)[C@@H](C)N[C@H](C)C3)c2cccc(O)c12 [CHEMBL222805] | 4.00 | Inactive |  | 
12 | CC1=CCC[C@@]2(C)CC3=C(C[C@@H]12)C(=O)C=CC3=O [CHEMBL255103] | 4.77 | Inactive |  | 
13 | COc1ccccc1-c1nnc(-c2ccc(C(=O)N/N=C/c3cccc(C)c3)cc2)o1 [CHEMBL4097073] | 4.40 | Inactive |  | 
14 | COc1c(C)cc2cccc(OC)c2c1O [CHEMBL2071227] | 4.35 | Inactive |  | 
15 | CCCCCCN(CCCCCC)c1ccc(Nc2c3ccccc3nc3ccccc23)cc1 [CHEMBL88123] |  |  | 6.62 | Active
16 | COc1ccccc1C(=O)N/N=C/c1ccc(Cl)cc1 [CHEMBL2382045] | 4.16 | Inactive |  | 
17 | CC1=N[C@H](C)Cc2c(-c3ccc(Cl)cc3)ccc(O)c21 [CHEMBL1275824] | 4.00 | Inactive |  | 
18 | Oc1ccc(-c2c(-c3ccccc3)nc3ccccn23)cc1 [CHEMBL2151859] | 4.40 | Inactive |  | 
19 | c1ccc(-c2nc3ccccn3c2-c2cncnc2)cc1 [CHEMBL2151871] | 4.00 | Inactive |  | 
20 | O=[N+]([O-])c1ccc(-c2nnc(NCc3cn(Cc4ccccc4)nn3)s2)o1 [CHEMBL1951522] | 4.71 | Inactive |  | 
21 | COc1cc(OC)c2c(C)[n+](-c3ccc4cc5ccccc5cc4c3)c(C)cc2c1.F[B-](F)(F)F [CHEMBL482393] |  |  | 6.17 | Active
22 | CCOC(=O)C1=C(C)NC(=O)NC1c1ccccc1 (stereo not drawn) [CHEMBL507603] |  |  | 5.42 | Active
23 | COc1cccc(/C=N/NC(=O)c2ccc(-c3nnc(-c4ccccc4OC)o3)cc2)c1 [CHEMBL4098544] | 4.10 | Inactive |  | 
24 | COc1ccccc1-c1nnc(-c2ccc(C(=O)N/N=C/c3ccccc3C)cc2)o1 [CHEMBL4072556] | 4.47 | Inactive |  | 

Row | SMILES | pIC50 Value (L. major [1]; [3]) | Outcome (L. major [2]; [4]) | pIC50 Value (L. major [1]; [5]) | Outcome (L. major [2]; [6])
25 | CCCCN1CN(CC(=O)O)CSC1=S [CHEMBL4283328] | 4.61 | Inactive |  | 
26 | Cc1cccc2cc(C3CC(c4sccc4Br)=NN3)c(Cl)nc12 (stereo not drawn) [CHEMBL2236132] |  |  | 5.64 | Active
27 | c1csc(-c2nc3ccccc3[nH]2)c1 [CHEMBL201221] |  |  | 5.51 | Active
28 | CCCCNC(=N)c1ccc(N2CCN(c3nnc(-c4ccc([N+](=O)[O-])o4)s3)CC2)cc1.Cl [CHEMBL1783204] | 4.96 | Inactive |  | 
29 | COc1cc(OC)c2c(C)[n+](-c3ccc(Cl)cc3)c(C)cc2c1.F[B-](F)(F)F [CHEMBL481566] | 4.72 | Inactive |  | 
30 | COc1ccccc1-c1nnc(-c2ccc(C(=O)N/N=C/c3ccc([N+](=O)[O-])cc3)cc2)o1 [CHEMBL4067171] | 4.25 | Inactive |  | 
31 | N#Cc1ccc(-c2c(-c3ccccc3)nc3ccccn23)cc1 [CHEMBL2151864] | 4.00 | Inactive |  | 
32 | COC(=O)c1ccc(/C=N/NC(=O)c2ccccc2OC)cc1 [CHEMBL2382031] | 4.81 | Inactive |  | 
33 | CCCCOc1ccc(-c2nc3cc([N+](=O)[O-])ccc3[nH]2)cc1 [CHEMBL2297903] |  |  | 5.61 | Active
34 | CN[C@@H](C)[C@H]1CC[C@H]2[C@@H]3CC[C@H]4[C@@H](OC(C)=O)[C@@H](NC(=O)C=C(C)C)CC[C@]4(C)[C@H]3CC[C@]12C [CHEMBL504923] |  |  | 5.48 | Active
35 | CC(C)(C)c1ccc(CN2CCN(c3ccnc4cc(Cl)ccc34)CC2)cc1 [CHEMBL1256730] | 4.21 | Inactive |  | 
36 | CCCc1cc(-c2nn3c(-c4ccccc4)nnc3s2)n(CC)n1 [CHEMBL1256824] | 4.00 | Inactive |  | 
37 | c1ccc(-c2nc3c(NCCN4CCOCC4)nccn3c2-c2ccncc2)cc1 [CHEMBL3634365] | 4.63 | Inactive |  | 
38 | O=C(/C=C/C1=Cc2cc(Cl)ccc2OC1)c1ccccc1F [CHEMBL1097964] |  |  | 5.65 | Active
39 | C[C@H]1COC2=C1C(=O)C(=O)c1c2ccc2c1C(=O)CCC2(C)C [CHEMBL519694] | 4.59 | Inactive |  | 
40 | O=[N+]([O-])c1ccc(-c2nnc(N3CCOCC3)s2)s1 [CHEMBL195645] | 4.97 | Inactive |  | 
41 | CC1=N[C@H](C)Cc2c(-c3cccc4ccccc34)ccc(O)c21 [CHEMBL1276916] | 4.87 | Inactive |  | 
42 | CCCN1CN(CC(=O)OC)CSC1=S [CHEMBL4294585] | 3.69 | Inactive |  | 
43 | Clc1cccc(-c2c(-c3ccccc3)nc3cnccn23)c1 [CHEMBL3634354] | 4.84 | Inactive |  | 
44 | Cc1cccc2cc(/C=C/C(=O)c3ccc(Cl)s3)c(Cl)nc12 [CHEMBL1940867] |  |  | 5.73 | Active
45 | O=C(CCl)N1c2ccccc2CCc2ccccc21 [CHEMBL1314125] | 4.36 | Inactive |  | 
46 | NCCNCCc1ccc(Nc2c3ccccc3nc3ccccc23)cc1 [CHEMBL89150] |  |  | 6.15 | Active
47 | C[C@@H]([C@H]1CC[C@H]2[C@@H]3CC[C@H]4C(=O)C(NC=O)=CC[C@]4(C)[C@H]3CC[C@]12C)N(C)C [CHEMBL496489] | 4.65 | Inactive |  | 
48 | O=C(/C=C/c1ccc(-n2ccnc2)cc1)c1ccccc1Br [CHEMBL569130] |  |  | 5.61 | Active
